Read-outs that look alike come from different tables or passages of the source. Peptide text beside a SMILES is read from it. * marks the point of attachment. Palmitoyl = CCCCCCCCCCCCCCCC(=O)*
Columns and labels:
[1] = Solution NMR conformational analysis in DPC micelles; format: physicochemical; details: pH 5.5, 25 °C, restrained MD calculations
Procedure: Samples for NMR spectroscopy were prepared by dissolving the appropriate amount of peptide in 0.54 ml of ^1H2O (pH 5.5), 0.06 ml of ^2H2O to obtain a final DPC-d38 concentration of 2 mM and 200 mM. NMR spectra were recorded on a Varian INOVA 700 MHz spectrometer equipped with a z-gradient 5 mm triple-resonance probe head. All spectra were recorded at a temperature of 25 °C and were calibrated relative to TSP (0.00 ppm) as internal standard. One-dimensional (1D) NMR spectra were recorded in the Fourier mode with quadrature detection. The water signal was suppressed by gradient echo ([70]). Two dimensional (2D) DQF-COSY ([71], [72]), TOCSY ([73]), and NOESY ([74]) spectra were recorded in the phase-sensitive mode as described ([75]). Data block sizes were 2048 addresses in t2 and 512 equidistant t1 values. […] The qualitative and quantitative analyses of DQF-COSY, TOCSY, and NOESY spectra were obtained using the interactive program package XEASY ([76]). Complete ^1H NMR chemical shift assignments were effectively achieved for hUT-Pep2 and [Trp^1, Leu^2]hUT-Pep3 according to the Wüthrich procedure ([77]) via the usual systematic application of DQF-COSY, TOCSY, and NOESY experiments with the support of the XEASY software package (Tables S1 and S3). ^3JαN coupling constants were measured by 1D proton and DQF-COSY spectra. […]

[2] = biological target: T1, hUT (Homo sapiens, UniProt Q9UKP6); assay: G12 activation, BRET biosensor, HEK 293-hUT cells; format: cell-based; design: expressed in transfected cells
T1 sequence (Q9UKP6 1-389): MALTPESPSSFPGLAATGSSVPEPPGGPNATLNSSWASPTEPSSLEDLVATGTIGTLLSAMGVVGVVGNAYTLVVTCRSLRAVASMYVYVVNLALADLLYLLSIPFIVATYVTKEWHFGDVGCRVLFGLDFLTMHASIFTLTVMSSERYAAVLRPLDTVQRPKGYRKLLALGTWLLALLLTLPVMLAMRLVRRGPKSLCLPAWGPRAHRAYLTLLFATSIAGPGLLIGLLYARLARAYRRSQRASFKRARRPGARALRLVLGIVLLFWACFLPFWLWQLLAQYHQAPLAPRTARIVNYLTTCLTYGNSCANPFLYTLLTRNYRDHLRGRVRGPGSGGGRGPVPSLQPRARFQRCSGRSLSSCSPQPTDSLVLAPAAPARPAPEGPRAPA
Procedure: Figure 6 Signaling signature of hUT-pepducins following hUT receptor activation. […] Each curve represents mean ± SEM of at least three independent concentration-response experiments performed in triplicate.
(§1) HEK 293-hUT cells were grown in DMEM culture media supplemented with 10% foetal bovine serum, HEPES, sodium pyruvate, and G418 (200 μg mL^−1). Passages were performed when cells reached 80% of confluency. Cells were initially plated in 96-well plates at a density of 10,000 cells/well. […] Then, to evaluate Gq and G12 activation, 10 μl of a 1/20 dilution (diluted before use) of coelenterazine 400A (stock at 1 mM in ethanol) in Kreb's buffer and 10 μl of the 10× appropriate concentration of peptide were added, and the luminescence was evaluated with an Infinite M1000 PRO. […] Readings were performed after 5 min using an Infinite M1000 PRO. […] BRET ratio was determined by calculating the ratio of the light emitted by GFP10 over the light emitted by the RlucII.

[3] = biological target: T1, hUT; assay: Antagonism of hUII- or URP-mediated G12 activation, BRET, HEK 293-hUT cells; format: cell-based; design: expressed in transfected cells; details: pepducin 10^−5 M for 15 min, then hUII or URP, at least three experiments in triplicate
Procedure: Figure 10 Effect of hUT-pepducins on hUT-mediated G12activation. […] Each curve represents mean ± SEM of at least three independent concentration–response experiments performed in triplicate.
as §1

| Compound | conformation by NMR [1] | Emax at 1 µM ([2]; read-out: G12 activation, maximum efficacy at 10^−6 M) [%] | hUII- and URP-mediated G12 activation after pepducin pretreatment [3] | Emax at 1 µM ([2]; read-out: G12 activation Emax) [%] |
| --- | --- | --- | --- | --- |
| CCCCCCCCCCCCCCCC(=O)N[C@@H](Cc1c[nH]c2ccccc12)C(=O)N[C@@H](CC(C)C)C(=O)N[C@@H](CO)C(=O)N[C@@H](CCC(N)=O)C(=O)N[C@@H](CCCNC(=N)N)C(=O)N[C@@H](C)C(=O)N[C@@H](CO)C(=O)N[C@@H](Cc1ccccc1)C(=O)N[C@@H](CCCCN)C(=O)N[C@@H](CCCNC(=N)N)C(=O)N[C@@H](C)C(=O)N[C@@H](CCCNC(=N)N)C(=O)N[C@@H](CCCNC(=N)N)C(N)=O [[Trp^1, Leu^2]hUT-Pep3] (Palmitoyl-WLSQRASFKRARR-NH2) | high tendency of [Trp^1, Leu^2]hUT-Pep3 to fold into a helix | 5 | completely abolished hUII- and URP-associated G12 stimulation | – |
| CC(C)[C@H](NC(=O)[C@@H]1CSSC[C@H](NC(=O)[C@H](CC(=O)O)NC(=O)[C@@H]2CCCN2C(=O)[C@@H](NC(=O)[C@@H](N)CCC(=O)O)[C@@H](C)O)C(=O)N[C@@H](Cc2ccccc2)C(=O)N[C@@H](Cc2c[nH]c3ccccc23)C(=O)N[C@@H](CCCCN)C(=O)N[C@@H](Cc2ccc(O)cc2)C(=O)N1)C(=O)O [hUII, urotensin II, reference compound] | – | – | – | 98 ± 3 |
| CCCCCCCCCCCCCCCC(=O)N[C@@H](CCCNC(=N)N)C(=O)N1CCC[C@H]1C(=O)N[C@@H](CC(C)C)C(=O)N[C@@H](CC(=O)O)C(=O)N[C@H](C(=O)N[C@H](C(=O)N[C@@H](CCC(N)=O)C(=O)N[C@@H](CCCNC(=N)N)C(=O)N1CCC[C@H]1C(=O)N[C@@H](CCCCN)C(=O)NCC(=O)N[C@@H](Cc1ccc(O)cc1)C(N)=O)C(C)C)[C@@H](C)O [hUT-Pep2] (Palmitoyl-RPLDTVQRPKGY-NH2) | two type I β-turns along residues 1–4 and 3–6 and three distorted (type IV) β-turns along residues 4–7, 5–8, and 6–9 | – | completely abolished hUII- and URP-associated G12 stimulation | – |

— article PMC8424217 (The Journal of Biological Chemistry, 2021)
